According to patent US10314841B2, “Substituted pyrazoles as IRAK inhibitors” (Merck Patent GmbH, priority 2014, dated 2019):
pIC50: −log10 of the molar value.

Assays:
[1] = tested on: TLR7 induced IL-6 secretion in human PBMC's; assay: TLR7 induced IL-6 in human PBMC's; type: cell-based; conditions: human PBMC, TLR7 specific ligand 2 uM overnight, IL-6 Alpha LISA; read-out: TLR7 induced IL-6 secretion in hPBMC's (IC50)
Description: TLR7 Induced IL-6 in Human PBMC's Human PBMC assay was used as one of the functional assays to monitor the activity of IRAK1 and IRAK4 small molecule inhibitors on TLR7 induced IL-6 secretion in human mononuclear cells (PBMC's). Human PBMCs were prepared from buffy coats (whole blood enriched with leukocytes and platelets) obtained from healthy volunteers used either fresh or frozen are plated in assay media (RPMI+2% P/S/L-glu+10% HI-FBS) and pre-treated with compounds in DMSO/media (range of concentrations from 25 uM to 0.4 nM) or controls (0.25% DMSO) for 30 minutes at 37° C. in assay media. Following pre-treatment with IRAK1 and IRAK4 inhibitors, PBMC's were stimulated with TLR7 specific ligand (2 uM) overnight (16-18 hrs) at 37° C. After incubation supernatant was transferred to 384 well PE AlphaPlate-384 (6005350) and IL-6 is quantified using Perkin Elmer IL-6 Alpha LISA kit (A[…]). Plates were read on an Envision® plate reader with Alpha Technology®.

IRAK4 (His-TEV-IRAK4) = target: T1, IRAK4 (His-TEV-IRAK4) (Homo sapiens, UniProt Q9NWZ3); assay: IRAK4 enzymatic assay; type: biochemical; conditions: human recombinant His-TEV-IRAK4, ATP 2 μM, STK1-biotin peptide 300 nM, 3 hours at 30° C., FlashPlate
T1 construct: His (N); TEV cleavage site (N)
T1 sequence (Q9NWZ3 1-460): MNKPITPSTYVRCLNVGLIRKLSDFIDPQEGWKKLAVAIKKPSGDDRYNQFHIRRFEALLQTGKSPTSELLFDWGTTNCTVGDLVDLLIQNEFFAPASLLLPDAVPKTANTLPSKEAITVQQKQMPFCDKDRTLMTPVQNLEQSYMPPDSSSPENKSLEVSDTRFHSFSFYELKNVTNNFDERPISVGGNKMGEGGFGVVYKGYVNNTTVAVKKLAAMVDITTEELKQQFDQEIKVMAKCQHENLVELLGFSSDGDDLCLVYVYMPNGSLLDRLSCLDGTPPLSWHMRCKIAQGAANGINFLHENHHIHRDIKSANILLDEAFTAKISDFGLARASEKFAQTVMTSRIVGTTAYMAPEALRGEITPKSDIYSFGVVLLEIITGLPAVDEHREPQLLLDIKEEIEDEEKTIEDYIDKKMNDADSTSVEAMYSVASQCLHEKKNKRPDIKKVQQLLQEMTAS
Description: IRAK4 Enzymatic Assay IRAK4 is a human purified recombinant enzyme (His-TEV-[…] (194-712). IRAK4 hydrolyses ATP, autophosphorylates and phosphorylates a Serine/Threonine generic peptidic substrate (STK: 61 ST1BLC from CisBio International based in Bagnols/Cèze FR). Measurement of IRAK-4 inhibition was performed in streptavidin coated 384 well FlashPlate (PerkinElmer #SM[…]). His-TEV-IRAK4 (20 ng/well), ATP (2 μM, [^33P]ATP 0.25 μCi/well), STK1-biotin peptide (300 nM) and compounds in DMSO (range of concentrations from 20 μM to 1 nM) or controls (2% DMSO) were incubated for 3 hours at 30° C. in assay buffer: Hepes pH7.0 50 mM, Fatty acid-free BSA 0.1%, Dithiothreitol DTT 2 mM, MgCl2 10 mM, EGTA 0.5 mM, Tween-20 0.01%, MnCl2 5 mM. Kinase reaction was stopped by addition of EDTA. Supernatant was discarded, plates were washed three times with 150 mM NaCl and radioactivity was then measured in a Microbeta Trilux reader.

[2] = target: T2, IRAK1 (His-TEV-IRAK1 (194-712)) (Homo sapiens, UniProt P51617); assay: IRAK1 enzymatic assay; type: biochemical; conditions: human recombinant His-TEV-IRAK1, ATP 1 μM, 3 hours at 30° C., FlashPlate
T2 construct: His-TEV-IRAK1 (194-712); His (N); TEV cleavage site (N)
Description: IRAK1 Enzymatic Assay IRAK1 is a human purified recombinant enzyme (His-TEV-IRAK1 (194-712)). In this assay, IRAK-1 hydrolyses ATP and autophosphorylates. Measurement of IRAK-1 inhibition was performed in streptavidin coated 384 well FlashPlate (PerkinElmer #SM[…]). His-TEV-IRAK-1 (15 ng/well), ATP (1 μ[…]]ATP 0.25 μCi/well) and compounds in DMSO (range of concentrations from 20 μM to 1 nM) or controls (2% DMSO) were incubated for 3 hours at 30° C. in assay buffer: Hepes pH7.0 50 mM, Fatty acid-free BSA 0.1%, Dithiothreitol DTT 2 mM, MgCl2 10 mM, EGTA 0.5 mM, Triton-X-100 0.01%. Kinase reaction was stopped by addition of EDTA. Supernatant was discarded, plates were washed three times with 150 mM NaCl and radioactivity was then measured in a Microbeta Trilux reader.

T2 sequence (P51617 194-712): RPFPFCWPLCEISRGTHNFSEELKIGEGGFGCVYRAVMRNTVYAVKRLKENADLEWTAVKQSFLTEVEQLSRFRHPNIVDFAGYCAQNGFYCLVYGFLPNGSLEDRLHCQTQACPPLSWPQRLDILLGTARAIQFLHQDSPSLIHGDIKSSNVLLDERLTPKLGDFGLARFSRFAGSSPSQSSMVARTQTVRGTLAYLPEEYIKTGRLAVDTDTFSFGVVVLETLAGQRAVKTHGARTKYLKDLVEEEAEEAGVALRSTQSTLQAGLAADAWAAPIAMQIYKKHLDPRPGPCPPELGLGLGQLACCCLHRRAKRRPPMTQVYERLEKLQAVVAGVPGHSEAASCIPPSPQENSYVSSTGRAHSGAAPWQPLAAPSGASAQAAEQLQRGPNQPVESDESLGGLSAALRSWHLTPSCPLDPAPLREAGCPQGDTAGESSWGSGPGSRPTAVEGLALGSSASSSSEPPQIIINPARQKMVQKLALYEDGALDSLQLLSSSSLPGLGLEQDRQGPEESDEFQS

SMILES | pIC50 [1] | pIC50 (IRAK4 (His-TEV-IRAK4)) | pIC50 [2]
C=CC(=O)N[C@H]1CCC[C@H](n2cc(-c3cnc(-c4cccc(-c5cnn(C)c5)c4)nc3)cn2)C1 [Compound 38, N-[(1S,3S)-3-(4-{2-[3-(1-Methyl-1H-pyrazol-4-yl)-phenyl]-pyrimidin-5-yl}-pyrazol-1-yl)-cyclohexyl]-acrylamide] | 6.00 to 7.00 | > 7.00 | 6.00 to 7.00
Cn1nccc1-c1cccc(-c2ncc(-c3cnn([C@H]4CC[C@]5(CCC(=O)N5C)CC4)c3)cn2)c1 [Compound 43, 1-Methyl-8-((S)-4-{2-[3-(2-methyl-2H-pyrazol-3-yl)-phenyl]-pyrimidin-5-yl}-pyrazol-1-yl)-1-aza-spiro[4.5]decan-2-one] | 4.70 to 6.00 | > 7.00 | 4.70 to 6.00
Cn1cc(-c2cccc(-c3ncc(-c4cnn(C5CCN(C#N)CC5)c4)cn3)c2)cn1 [Compound 45, 4-(4-{2-[3-(1-Methyl-1H-pyrazol-4-yl)-phenyl]-pyrimidin-5-yl}-pyrazol-1-yl)-piperidine-1-carbonitrile] | 6.00 to 7.00 | > 7.00 | 6.00 to 7.00
Cn1cc(-c2cccc(-c3ncc(-c4cnn(C5CCN(C(=O)/C(C#N)=C\C6CC6)CC5)c4)cn3)c2)cn1 [Compound 46, (Z)-3-Cyclopropyl-2-[4-(4-{2-[3-(1-methyl-1H-pyrazol-4-yl)-phenyl]-pyrimidin-5-yl}-pyrazol-1-yl)-piperidine-1-carbonyl]-acrylonitrile] | 6.00 to 7.00 | > 7.00 | > 7.00
CC#CC(=O)N1CCC(n2cc(-c3cnc(-c4cccc(-c5cnn(C)c5)c4)nc3)cn2)CC1 [Compound 48, 1-[4-(4-{2-[3-(1-Methyl-1H-pyrazol-4-yl)-phenyl]-pyrimidin-5-yl}-pyrazol-1-yl)-piperidin-1-yl]-but-2-yn-1-one] | 4.70 to 6.00 | > 7.00 | > 7.00
